Experimental data: ChEMBL document CHEMBL5316327, “Design and Synthesis of Orally Active Quinolyl Pyrazinamides as Sigma 2 Receptor Ligands for the Treatment of Pancreatic Cancer” (J Med Chem, 2023)
Calls of active or inactive are those of the source. No cut-off for these calls is given here.

How the values were obtained:
[1] = system: MIA PaCa-2; experiment: Induction of apoptosis in human MIA PaCa-2 cells assessed as viable cells at 1.0 uM measured after 48 hrs by Annexin V-Alexa Fluor 488/propidium iodide staining based flow cytometry (reference value: 82.23%); format: functional; settings: read-out: Activity
[2] = target: D(1A) dopamine receptor (Homo sapiens, UniProt P21728); experiment: Binding affinity to dopamine D1 receptor (unknown origin) assessed as inhibition constant
Sequence of D(1A) dopamine receptor (P21728 whole entry): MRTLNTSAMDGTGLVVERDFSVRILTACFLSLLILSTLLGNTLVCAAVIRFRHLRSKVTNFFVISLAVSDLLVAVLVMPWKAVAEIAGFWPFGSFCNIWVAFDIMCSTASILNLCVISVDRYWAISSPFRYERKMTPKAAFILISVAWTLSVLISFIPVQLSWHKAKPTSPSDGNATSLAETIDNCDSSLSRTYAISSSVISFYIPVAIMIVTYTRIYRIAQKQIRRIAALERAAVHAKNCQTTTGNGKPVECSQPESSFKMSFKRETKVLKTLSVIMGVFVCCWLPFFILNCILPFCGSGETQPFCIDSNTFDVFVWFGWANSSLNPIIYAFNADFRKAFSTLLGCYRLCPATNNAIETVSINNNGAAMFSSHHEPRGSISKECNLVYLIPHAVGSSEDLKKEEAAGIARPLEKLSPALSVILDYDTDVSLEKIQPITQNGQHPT

[3] = target: D(3) dopamine receptor (Homo sapiens, UniProt P35462); experiment: Binding affinity to dopamine D3 receptor (unknown origin) assessed as inhibition constant
Sequence of D(3) dopamine receptor (P35462 whole entry): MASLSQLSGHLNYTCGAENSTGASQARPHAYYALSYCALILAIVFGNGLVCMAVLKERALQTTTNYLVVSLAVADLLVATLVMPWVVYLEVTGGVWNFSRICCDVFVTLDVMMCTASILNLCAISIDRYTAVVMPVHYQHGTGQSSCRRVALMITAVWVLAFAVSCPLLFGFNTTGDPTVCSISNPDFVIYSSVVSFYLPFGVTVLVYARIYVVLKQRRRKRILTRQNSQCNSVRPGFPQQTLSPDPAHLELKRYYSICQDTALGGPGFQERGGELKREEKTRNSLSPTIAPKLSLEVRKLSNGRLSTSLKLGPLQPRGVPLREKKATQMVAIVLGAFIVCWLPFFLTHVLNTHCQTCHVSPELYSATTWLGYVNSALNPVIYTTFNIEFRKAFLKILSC

[4] = target: Muscarinic acetylcholine receptor M2 (Homo sapiens, UniProt P08172); experiment: Binding affinity to M2 receptor (unknown origin) assessed as inhibition constant
Sequence of Muscarinic acetylcholine receptor M2 (P08172 whole entry): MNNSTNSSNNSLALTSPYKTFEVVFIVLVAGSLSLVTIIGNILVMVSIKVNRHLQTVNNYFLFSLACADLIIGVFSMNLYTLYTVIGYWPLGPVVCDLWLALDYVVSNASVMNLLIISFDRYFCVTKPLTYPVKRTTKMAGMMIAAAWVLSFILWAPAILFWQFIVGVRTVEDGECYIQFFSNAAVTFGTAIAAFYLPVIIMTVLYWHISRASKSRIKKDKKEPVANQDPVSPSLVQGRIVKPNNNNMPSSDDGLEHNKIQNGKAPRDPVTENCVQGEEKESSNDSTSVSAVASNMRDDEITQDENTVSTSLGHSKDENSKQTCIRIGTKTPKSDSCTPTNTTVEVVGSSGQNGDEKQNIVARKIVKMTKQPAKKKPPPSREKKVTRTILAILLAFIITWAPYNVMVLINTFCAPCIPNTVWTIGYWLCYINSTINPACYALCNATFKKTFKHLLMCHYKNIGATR

[5] = target: Histamine H2 receptor (Homo sapiens, UniProt P25021); experiment: Binding affinity to histamine H2 receptor (unknown origin) assessed as inhibition constant
Sequence of Histamine H2 receptor (P25021 whole entry): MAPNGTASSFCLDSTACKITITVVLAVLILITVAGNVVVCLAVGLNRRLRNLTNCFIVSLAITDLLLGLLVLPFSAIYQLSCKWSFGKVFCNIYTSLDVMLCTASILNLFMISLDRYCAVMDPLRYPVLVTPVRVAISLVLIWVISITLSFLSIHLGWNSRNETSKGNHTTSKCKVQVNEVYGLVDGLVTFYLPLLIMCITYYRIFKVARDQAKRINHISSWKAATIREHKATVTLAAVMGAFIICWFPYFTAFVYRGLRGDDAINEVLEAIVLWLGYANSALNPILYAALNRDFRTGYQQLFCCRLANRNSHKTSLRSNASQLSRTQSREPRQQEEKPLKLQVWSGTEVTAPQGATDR

[6] = target: 5-hydroxytryptamine receptor 2A (Homo sapiens, UniProt P28223); experiment: Binding affinity to 5-HT2A receptor (unknown origin) assessed as inhibition constant
Sequence of 5-hydroxytryptamine receptor 2A (P28223 whole entry): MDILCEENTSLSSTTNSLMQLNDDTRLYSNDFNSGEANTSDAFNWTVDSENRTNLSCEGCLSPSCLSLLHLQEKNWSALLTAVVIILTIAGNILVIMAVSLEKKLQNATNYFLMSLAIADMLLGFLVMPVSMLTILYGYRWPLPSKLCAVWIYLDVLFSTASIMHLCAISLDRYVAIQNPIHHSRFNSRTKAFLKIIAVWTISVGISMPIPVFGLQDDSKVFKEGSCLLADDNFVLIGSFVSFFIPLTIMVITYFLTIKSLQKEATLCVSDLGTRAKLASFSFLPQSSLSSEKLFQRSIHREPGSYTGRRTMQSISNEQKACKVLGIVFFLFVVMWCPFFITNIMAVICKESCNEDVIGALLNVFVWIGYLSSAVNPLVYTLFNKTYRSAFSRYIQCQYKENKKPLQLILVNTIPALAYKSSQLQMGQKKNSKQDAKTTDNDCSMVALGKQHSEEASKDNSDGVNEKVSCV

[7] = target: 5-hydroxytryptamine receptor 2C (Homo sapiens, UniProt P28335); experiment: Binding affinity to 5-HT2C receptor (unknown origin) assessed as inhibition constant
Sequence of 5-hydroxytryptamine receptor 2C (P28335 whole entry): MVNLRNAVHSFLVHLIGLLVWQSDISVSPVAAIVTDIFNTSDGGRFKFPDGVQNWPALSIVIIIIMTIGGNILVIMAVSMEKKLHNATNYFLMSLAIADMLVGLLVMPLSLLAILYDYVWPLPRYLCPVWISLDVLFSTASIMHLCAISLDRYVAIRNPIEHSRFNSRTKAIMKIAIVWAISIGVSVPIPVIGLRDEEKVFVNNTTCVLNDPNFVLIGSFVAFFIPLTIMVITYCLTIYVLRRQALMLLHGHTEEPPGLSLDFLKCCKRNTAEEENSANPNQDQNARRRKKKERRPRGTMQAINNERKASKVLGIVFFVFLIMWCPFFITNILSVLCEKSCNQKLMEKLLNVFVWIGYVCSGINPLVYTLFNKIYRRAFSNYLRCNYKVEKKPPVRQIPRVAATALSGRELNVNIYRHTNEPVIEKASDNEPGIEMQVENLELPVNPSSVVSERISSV

[8] = target: Alpha-2A adrenergic receptor (Homo sapiens, UniProt P08913); experiment: Binding affinity to alpha2A receptor (unknown origin) assessed as inhibition constant
Sequence of Alpha-2A adrenergic receptor (P08913 whole entry): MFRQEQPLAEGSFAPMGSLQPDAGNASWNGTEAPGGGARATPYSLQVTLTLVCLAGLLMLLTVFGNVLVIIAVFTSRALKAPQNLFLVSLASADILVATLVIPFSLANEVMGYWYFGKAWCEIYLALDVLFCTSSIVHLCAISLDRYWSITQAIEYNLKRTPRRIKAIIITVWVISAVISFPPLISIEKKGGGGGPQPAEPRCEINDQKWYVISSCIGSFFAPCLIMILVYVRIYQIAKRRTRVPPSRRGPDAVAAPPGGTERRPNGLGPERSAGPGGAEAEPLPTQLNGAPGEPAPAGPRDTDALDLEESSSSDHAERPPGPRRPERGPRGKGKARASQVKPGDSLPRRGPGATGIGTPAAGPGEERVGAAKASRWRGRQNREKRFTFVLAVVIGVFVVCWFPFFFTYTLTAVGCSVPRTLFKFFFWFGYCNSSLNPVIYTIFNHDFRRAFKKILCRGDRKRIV

[9] = Cytotoxicity against HEK293 cells measured after 72 hrs by MTT assay; format: toxicity, cell-based; settings: human
[10] = system: MIA PaCa-2; experiment: Induction of apoptosis in human MIA PaCa-2 cells assessed as viable cells at 5.0 uM measured after 48 hrs by Annexin V-Alexa Fluor 488/propidium iodide staining based flow cytometry (reference value: 82.23%); format: functional; settings: read-out: Activity
[11] = system: MIA PaCa-2; experiment: Induction of apoptosis in human MIA PaCa-2 cells assessed as early apoptotic cells at 5.0 uM measured after 48 hrs by Annexin V-Alexa Fluor 488/propidium iodide staining based flow cytometry (reference value: 4.11%); format: functional
[12] = system: MIA PaCa-2; experiment: Induction of apoptosis in human MIA PaCa-2 cells assessed as early apoptotic cells at 10.0 uM measured after 48 hrs by Annexin V-Alexa Fluor 488/propidium iodide staining based flow cytometry (reference value: 4.11%); format: functional
[13] = system: MIA PaCa-2; experiment: Induction of apoptosis in human MIA PaCa-2 cells assessed as late apoptotic cells at 5.0 uM measured after 48 hrs by Annexin V-Alexa Fluor 488/propidium iodide staining based flow cytometry (reference value: 6.63%); format: functional
[14] = system: MIA PaCa-2; experiment: Induction of apoptosis in human MIA PaCa-2 cells assessed as late apoptotic cells at 10.0 uM measured after 48 hrs by Annexin V-Alexa Fluor 488/propidium iodide staining based flow cytometry (reference value: 6.63%); format: functional
[15] = system: MIA PaCa-2; experiment: Induction of apoptosis in human MIA PaCa-2 cells assessed as necrotic cells at […] measured after 48 hrs by Annexin V-Alexa Fluor 488/propidium iodide staining based flow cytometry (reference value: 7.03%); format: functional; settings: dose 2.5 µM
[16] = system: HCT-116; experiment: Induction of apoptosis in human HCT-116 cells assessed as early apoptotic cells at […] measured after 48 hrs by Annexin V-Alexa Fluor 488/propidium iodide staining based flow cytometry (reference value: 2.77%); format: functional; settings: dose 2.5 µM
[17] = system: HCT-116; experiment: Induction of apoptosis in human HCT-116 cells assessed as late apoptotic cells at 5.0 uM measured after 48 hrs by Annexin V-Alexa Fluor 488/propidium iodide staining based flow cytometry (reference value: 8.48%); format: functional
[18] = system: MIA PaCa-2; experiment: Induction of cell cycle arrest in human MIA PaCa-2 cells assessed as accumulation of cells in G0/G1 phase at 10 uM measured after 24 hrs by propidium iodide staining-based flow cytometric analysis (reference value: 53%); format: functional
[19] = system: MIA PaCa-2; experiment: Induction of cell cycle arrest in human MIA PaCa-2 cells assessed as accumulation of cells in S phase at […] measured after 24 hrs by propidium iodide staining-based flow cytometric analysis (reference value: 31%); format: functional; settings: dose 2.5 µM
[20] = system: MIA PaCa-2; experiment: Induction of cell cycle arrest in human MIA PaCa-2 cells assessed as accumulation of cells in S phase at 5 uM measured after 24 hrs by propidium iodide staining-based flow cytometric analysis (reference value: 31%); format: functional
[21] = system: MIA PaCa-2; experiment: Induction of cell cycle arrest in human MIA PaCa-2 cells assessed as accumulation of cells in G2/M phase at 1 uM measured after 24 hrs by propidium iodide staining-based flow cytometric analysis (reference value: 16%); format: functional
[22] = system: MIA PaCa-2; experiment: Induction of cell cycle arrest in human MIA PaCa-2 cells assessed as accumulation of cells in G2/M phase at 10 uM measured after 24 hrs by propidium iodide staining-based flow cytometric analysis (reference value: 16%); format: functional
[23] = system: HCT-116; experiment: Induction of cell cycle arrest in human HCT-116 cells assessed as accumulation of cells in S phase at […] measured after 24 hrs by propidium iodide staining-based flow cytometric analysis (reference value: 47%); format: functional; settings: dose 2.5 µM
[24] = Clearance in CD-1 mouse plasma at 10 mg/kg, iv; format: ADME, organism-based
[25] = Apparent oral clearance in CD-1 mouse plasma at 20 mg/kg, po; format: ADME, organism-based
[26] = Volume of distribution at steady state in CD-1 mouse plasma at 10 mg/kg, iv; format: ADME, organism-based; settings: read-out: Vdss
[27] = Apparent volume of distribution during terminal phase in CD-1 mouse plasma at 20 mg/kg, po; format: ADME, organism-based; settings: read-out: Vz/F
[28] = Toxicity in C57BL/6 mouse assessed as effect on body weight at 30 mg/kg, po administered for 32 days and measured on day 4,7 in presence of copper sulfate; format: organism-based; settings: in vivo, 768 h, time 32 day
[29] = system: MIA PaCa-2; experiment: Additive cytotoxicity against human MIA PaCa-2 cells at upto 1 uM measured after 7 days in presence of copper chloride by crystal violet staining based analysis; format: functional, cell-based; settings: time 7.0 day
[30] = system: MIA PaCa-2; experiment: Additive cytotoxicity against human MIA PaCa-2 cells at upto 1 uM measured after 7 days in presence of ammonium tetrathiomolybdate by crystal violet staining based analysis; format: functional, cell-based; settings: time 7.0 day
[31] = system: HCT-116; experiment: Antagonistic cytotoxicity against human HCT-116 cells at upto 1 uM measured after 6 days in presence of elesclomol by crystal violet staining based analysis; format: functional, cell-based; settings: time 6.0 day
[32] = system: HCT-116; experiment: Synergistic cytotoxicity against human HCT-116 cells at upto 1 uM measured after 6 days in presence of gold acetate by crystal violet staining based analysis; format: functional, cell-based; settings: time 6.0 day
[33] = system: MIA PaCa-2; experiment: Synergistic cytotoxicity in human MIA PaCa-2 cells at upto 1 uM measured after 7 days in presence of gemcitabine by crystal violet staining based analysis; format: functional, cell-based; settings: time 7.0 day
[34] = system: MIA PaCa-2; experiment: Synergistic cytotoxicity in human MIA PaCa-2 cells at upto 1 uM measured after 7 days in presence of paclitaxel by crystal violet staining based analysis; format: functional, cell-based; settings: time 7.0 day
[35] = system: MIA PaCa-2; experiment: Synergistic cytotoxicity in human MIA PaCa-2 cells at upto 1 uM measured after 7 days in presence of cisplatin by crystal violet staining based analysis; format: functional, cell-based; settings: time 7.0 day
[36] = system: MIA PaCa-2; experiment: Synergistic cytotoxicity in human MIA PaCa-2 cells at upto 1 uM measured after 7 days in presence of CI-27 by crystal violet staining based analysis; format: functional, cell-based; settings: time 7.0 day
[37] = system: PANC-1; experiment: cells; settings: Homo sapiens, PANC-1, 72 h
[38] = system: BXPC-3; experiment: cells; settings: Homo sapiens, BXPC-3, 72 h

With `CCN(CC)CCCC(C)Nc1cnc(C(=O)Nc2ccc(Cl)c3cccnc23)cn1` (stereo not drawn) the viability at 1 µM [1] was 54.6%, the Ki [2] was 1.44 µM and the Ki [3] was 0.638 µM. It also gave a Ki [4] of 0.68 µM, a Ki [5] of 91.1 µM and a Ki [6] of 1.25 µM. It also gave a Ki [7] of 0.471 µM, a Ki [8] of 2.74 µM and an IC50 at 72 h [9] of 1.2 µM. It also gave a viability at 5 µM [10] of 32.4%, an Activity [11] of 22.26% and an Activity [12] of 32.58%. The Activity [13] was 40.03%, the Activity [14] was 53.96% and the Activity [15] was 5.91%. It also gave an Activity [16] of 8.77%, an Activity [17] of 18.39% and an Activity [18] of 69%. For the same compound, the Activity [19] was 35%, the Activity [20] was 22% and the Activity [21] was 13%. For the same compound, the Activity [22] was 17%, the Activity [23] was 33% and the clearance [24] was 62.2 mL/min/kg. The CL/F [25] was 98.3 mL/min/kg, the Vd [26] was 21.4 L/kg and the Vd/F [27] was 51.8 L/kg. For the same compound, the Activity [28] was “Toxic”, the Activity [29] was “Active” and the Activity [30] was “inactive”. The Activity [31] was “inactive”, the Activity [32] was “inactive” and the Activity [33] was “inactive”. For the same compound, the Activity [34] was “inactive”, the Activity [35] was “inactive” and the Activity [36] was “inactive”. For the same compound, the IC50 [37] was 4 µM and the IC50 [38] was 5.8 µM.
